Consider 1 compound from patent publication US5188642A, “Glyphosate-resistant plants” (priority 1990, dated 1993).

Test [1] has as its system petunia leaf disks. Briefly: Callus growth from petunia leaf disks on MS media with glyphosate. Format: cell-based. The protocol: Leaf disks with diameters of 6 mm (1/4 inch) were taken from surface-sterilized petunia leaves. They were cultivated on MS104 agar medium for 2 days to promote partial cell wall formation at the wound surfaces. They were then submerged in a culture of A. tumefaciens cells containing both pMON546 and GV3111-SE which had been grown overnight in Luria broth at 28° C., and shaken gently. The cells were removed from the bacterial suspension, blotted dry, and incubated upside down on filter paper placed over "nurse" cultures of tobacco cells, as described in Horsch 1981. Afer 2 or 3 days, the disks were transferred to petri dishes containing MS media with 500 μg/ml carbenicillin and 0, 0.1, 0.25, or 0.5 mM glyphosate (sodium salt), with no nurse cultures.
Control tissue was created using A. tumefaciens cells containing the helper plasmid pGV3111-SE and a different plant transformation vector, pMON505, which contained a T-DNA region with a NOS/NPTII/NOS kanamycin resistance gene and a NOS selectable marker gene identical to pMON546, but without the CaMV/EPSPS gene.
Within 10 days after transfer to the media containing glyphosate, actively growing callus tissue appeared on the periphery of all disks on the control plate containing no glyphosate. […] This confirms that the CaMV/EPSPS gene conferred glyphosate resistance upon the transformed cells.

In test [2] the test system is flax callus. Briefly: Flax callus resistance to glyphosate. Format: cell-based. The conditions noted are these: glyphosate between 5.0 and 20.0 mM. The protocol:
Flax seeds are surface-sterilized with 70% ethanol, 25% Chlorox and rinsed with sterile distilled water. The seeds are placed on solid MS medium and allowed to germinate in the light for 5-7 days. The hypocotyls are removed aseptically and inoculated with A. tumefaciens cells containing the above-described transformation vector and helper plasmid pTiB6S3-SE or pTiT37-SE and permitted to co-culture for 2 days on MS medium containing 1 mg/l benzylaminopurine, 0.02 mg/l naphthalene acetic acid and 4% sucrose. The hypocotyls are then placed on MS medium supplemented with 400 mg/l kanamycin and 500 mg/l carbenicillin.
Control tissue is prepared using A. tumefaciens cells containing helper plasmid pTiB6S3-SE or pTiT37-SE and vector pMON200.

Test [3] deals with MP4 cells. The experiment in a line: Culture of MP4 petunia suspension cells in MS media containing glyphosate. Format: cell-based. The settings on record: 0.5 mM glyphosate (sodium salt). The protocol: The starting cell line, designated as the MP4 line, was derived from a Mitchell diploid petunia (see, e.g., Ausubel 1980). The MP4 cells were suspended in Murashige and Skoog (MS) culture media, (GIBCO, Grand Island, N.Y.) All transfer involved the transfer of 10 ml of suspension culture into 50 ml of fresh media. Cultivation periods until the next transfer ranged from 10 to 14 days, and were based on visual indications that the culture was approaching saturation.
After two transfers, the surviving cells were transferred into fresh media containing 1.0 mM glyphosate. After two transfers at 1.0 mM, the surviving cells were transferred sequentially into 2.5 mM glyphosate, 5.0 mM glyphosate, and 10 mM glyphosate. The MP4-G cells were subsequently shown (by a Southern blot) to have about 15-20 copies of the EPSPS gene, due to a genetic process called "gene amplification" (see, e.g., Schimke 1982). Although spontaneous mutations might have occurred during the replication of any cell, there is no indication that any mutation or other modification of the EPSPS gene occurred during the gene amplification process. The only known difference between the MP4 and the MP4-G cells is that the MP4-G cells contain multiple copies of an EPSPS gene and possibly other genes located near it on the chromosomes of the cells.

Test [4] has as its system potato stem explant tissue. The settings on record: tissue transformed with pMON542. The protocol:
Potato--Shoot tips of virus-free Russet Burbank are subcultured on media containing MS major and minor salts, 0.17 g/l sodium dihygrogen phosphate, 0.4 mg/l thiamine hydrochloride, 0.1 g/l inositol, 3% sucrose, 1.5 g/l Gelrite™ (Kelco, Co ) at pH 5.6. Cultures are grown at 24C in a 16 hour photoperiod. Shoots are used approximately 3-4 weeks after subculturing. Stem internodes are cut into approximately 8 mm lengths and split lengthwise, then the cut surface is smeared with Agrobacterium carrying binary vector pMON542 and helper plasmid pTiT37-SE which had been streaked on an LB agar plate and grown for a few days. Stem sections are placed cut side down on the surface of the medium containing MS salts, MS organics, 3% sucrose, 2.25 mg/l BA, […] NAA, 10 mg/l GA, 1.5 g/l Gelrite at pH 5.6. After 4 days, the stem explants are transferred to the same medium but with carbenicillin at 500 mg/l and kanamycin as the selective agent at 0 or 300 mg/l. Two weeks after inoculation, the explants are moved onto medium of the same composition but without NAA.

Test [5] relates to soybean callus. The experiment in a line: Soybean callus growth on MS medium with glyphosate. Format: cell-based, Glycine canescens. The method, then: Sterile hypocotyl pieces of Glycine canescens, a type of soybean, were infected with the A. tumefaciens strain containing the chimeric EPSPS gene as described in Example 2. Nurse culture plates were made which contained a medium of 10% of the normal level of MS salts (GIBCO), B5 vitamins, 3 g/l sucrose, 2 mg/l napthalene acetic acid, 1 mg/l benzyladenine, and 0.5 mM arginine. The pH was adjusted to 5.7 before autoclaving.
The infected soybean hypocotyls were incubated at 26° C. for two days and transferred to a similar medium (except that the MS salts were not diluted) and additionally containing 500 mg/l carbenicillin, 100 mg/l cefotaxime and 100 mg/l kanamycin. Under these conditions, only transformed soybean callus was able to grow.
Control tissue was produced using A. tumefaciens cells containing the helper Ti plasmid pTiT37-SE and a plant transformation vector pMON200. See Fraley et al, Biotechnology Vol. 3, 1985, described herein. The co-integrate pTiT37-SE contained a T-DNA region with a NOS/NPTII/NOS kanamycin resistance gene and a NOS scorable marker gene identical to pMON200, but without the CaMV 35S/EPSPS/NOS gene.
After 14-17 days, soybean callus transformed with either the vector alone (pMON200 plasmid) or with the vector containing a chimeric EPSPS gene was transferred to petri dishes containing MS medium and 0, 0.5 mM or 1.0 mM glyphosate.
Within 18-20 days after transfer to the media containing glyphosate, actively growing callus tissue appeared in all dishes containing no glyphosate.

Regarding `O=C(O)CNCP(=O)(O)O` [glyphosate, N-phosphonomethylglycine], in test [1] (0.1 mM glyphosate (sodium salt), within 10 days, control pMON505, transformed pMON546), the “callus growth, control disks versus transformed tissue” value is “little detectable difference between the control disks and the transformed tissue”. Further, the callus growth in test [1] (control disks (pMON505), 0.25 mM glyphosate (sodium salt)) was “very little growth of callus from control disks”; in test [1] (control disks (pMON505), 0.5 mM glyphosate (sodium salt)), “no callus growth from the control disks”; in test [1] (transformed disks (pMON546, CaMV/EPSPS), 0.5 mM glyphosate (sodium salt)), “a significant number of calli grew from the transformed disks”; in test [1] (transformed tissue (pMON546, CaMV/EPSPS), 0.25 mM glyphosate (sodium salt)), “substantial growth of transformed tissue occurred”; in test [5] (callus colonies containing the chimeric EPSPS gene, 0.5 mM glyphosate, 18-20 days) it was “showed definite growth”; in test [5] (control callus (pMON200 vector alone), 0.5 mM glyphosate, 18-20 days) it was “little growth in the dishes containing control callus”. In addition, the callus growth is reported as “no callus growth from the control tissues” in test [5] (control tissues (pMON200), 1.0 mM glyphosate) and “some growth of the transformed callus” in test [5] (transformed callus containing the chimeric EPSPS gene, 1.0 mM glyphosate). Moreover, the tissue response entry in test [2] (control tissue (pMON200)) was “bleaches and dies”. The callus resistance in test [2] (selected callus transformed with EPSPS vector) is given as “demonstrates resistance to glyphosate”. Moreover, the viability at 500 µM in test [3] (estimated, read-out: cells which survived, share of the starting population) was below 1%. For the same compound, the “ability of cells to reproduce” value in test [3] (MS media) is reported as “large majority of cells were unable to reproduce”. Besides, in test [4], the resistance of tissue result was “exhibits substantial resistance to glyphosate”.
